Where two headings read alike, the source gives them in different places.
Assay: pKa of boronic acid monomer
Assay type: physicochemical
Conditions: monomer forming the repeating units of the copolymer

Row | pKa (read-out: pKa) | SMILES | pKa
1 |  | C=CC(=O)NCCNC(=O)c1ccc(B(O)O)cc1Cl [CPBA] | about 7.2
2 | ~8.1 | C=CC(=O)Nc1cccc(B(O)O)c1 [APBA, 3-(acrylamido)phenylboronic acid] | 
